Experimental data reported in patent US10131652B2, “Pyrimidinyloxy benzene derivatives as herbicides” (E. I. DU PONT DE NEMOURS AND COMPANY, priority 2014, dated 2018).

Assays:
Assay type in all cases: in vivo
[1] = tested on: ducksalad (Heteranthera limosa); assay: Test C flooded paddy test plant response; settings: Flood, 250 g ai/ha; scale of 0 to 100 where 0 is no effect and 100 is complete control; 13 to 15 days
Summary of the method: (§1)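 Water-applied treatment: compounds go directly into floodwater standing 3 cm over the soil of pots holding 2-leaf-stage plants. Depth is kept constant; plants stay in a greenhouse 13 to 15 days before visual comparison with controls on a 0–100 scale.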

[2] = tested on: barnyardgrass (Echinochloa crus-galli); assay: Test C flooded paddy test plant response; settings: Flood, 250 g ai/ha; scale of 0 to 100 where 0 is no effect and 100 is complete control; 13 to 15 days
Summary of the method: as §1

[3] = tested on: small-flower umbrella sedge (Cyperus difformis); assay: Test C flooded paddy test plant response; settings: Flood, 250 g ai/ha; scale of 0 to 100 where 0 is no effect and 100 is complete control; 13 to 15 days
Summary of the method: as §1

rice (Oryza sativa) = assay: Test C flooded paddy test plant response; settings: Flood, 250 g ai/ha; scale of 0 to 100 where 0 is no effect and 100 is complete control; 13 to 15 days
Summary of the method: as §1

[4] = tested on: blackgrass (Alopecurus myosuroides); assay: Test B postemergence plant response
Summary of the method: (§2)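 Injury was assessed visually about 10 days after treatment, scored from 0 (no effect) to 100 (complete control) by comparison with untreated controls. Test chemicals had been applied postemergence to potted plants at the one- to two-leaf stage, grown in loam soil and sand in a greenhouse.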

[5] = tested on: galium (catchweed bedstraw, Galium aparine); assay: Test B postemergence plant response
Summary of the method: as §2

corn (Zea mays) = assay: Test B pre-/postemergence plant response
Summary of the method: (§3)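 Greenhouse pots, loam/sand soil; compound formulated with surfactant in non-phytotoxic solvent. Preemergence soil spray and postemergence spray at 1–2 leaf stage run simultaneously. Visual injury, 0–100, about 10 days post-treatment.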

[6] = tested on: barnyardgrass (Echinochloa crus-galli); assay: Test B pre-/postemergence plant response
Summary of the method: as §3

[7] = tested on: ragweed (common ragweed, Ambrosia elatior); assay: Test B pre-/postemergence plant response
Summary of the method: as §3

[8] = tested on: Italian ryegrass (Lolium multiflorum); assay: Test B pre-/postemergence plant response
Summary of the method: as §3

[9] = tested on: pigweed (Amaranthus retroflexus); assay: Test B pre-/postemergence plant response
Summary of the method: as §3

[10] = tested on: wheat (Triticum aestivum); assay: Test B pre-/postemergence plant response
Summary of the method: as §3

[11] = tested on: giant foxtail (Setaria faberii); assay: Test B pre-/postemergence plant response
Summary of the method: as §3

kochia (Kochia scoparia) = assay: Test B pre-/postemergence plant response
Summary of the method: as §3

[12] = 125 g ai/ha, postemergence, 0 to 100 scale, 0 no effect, 100 complete control
[13] = Postemergence, 31 g ai/ha, 0 to 100 scale (0 no effect, 100 complete control)
[14] = 31 g ai/ha, Preemergence, 0 to 100 scale where 0 is no effect and 100 is complete control
[15] = Preemergence, 125 g ai/ha, 0 to 100 scale (0 no effect, 100 complete control)
[16] = 31 g ai/ha, Postemergence, 0 to 100 scale, 0 no effect, 100 complete control

Clc1cnc(Oc2ccccc2-c2ccno2)nc1 [Compound 154]
0: Ducksalad plant response rating [1] | Barnyardgrass plant response rating [2] | Sedge, Umbrella plant response rating [3] | Rice plant response rating (rice (Oryza sativa)) | Plant response rating, Blackgrass [4, 12] | Plant response rating, Blackgrass [4, 13] | Plant response rating, Galium [5, 12] | Plant response rating, Galium [5, 13] | Plant response rating, Corn (corn (Zea mays); [12]) | Plant response rating, Corn (corn (Zea mays); [13]) | Plant response rating, Barnyardgrass [6, 14] | Plant response rating, Barnyardgrass [6, 12] | Plant response rating, Barnyardgrass [6, 13] | Barnyardgrass plant response rating [6, 15] | Plant response rating, Ragweed [7, 14] | Plant response rating, Ragweed [7, 12] | Plant response rating, Ragweed [7, 13] | Ragweed plant response rating [7, 15] | Plant response rating, Ryegrass, Italian [8, 14] | Plant response rating, Ryegrass, Italian [8, 12] | Plant response rating, Ryegrass, Italian [8, 13] | Ryegrass, Italian plant response rating [8, 15] | Plant response rating, Pigweed [9, 14] | Plant response rating, Pigweed [9, 12] | Plant response rating, Pigweed [9, 13] | Pigweed plant response rating [9, 15] | Plant response rating, Wheat [10, 12] | Plant response rating, Wheat [10, 13] | Plant response rating, Foxtail, Giant [11, 14] | Plant response rating, Foxtail, Giant [11, 12] | Plant response rating, Foxtail, Giant [11, 13] | Foxtail, Giant plant response rating [11, 15] | Plant response rating, Kochia (kochia (Kochia scoparia); [14]) | Plant response rating, Kochia (kochia (Kochia scoparia); [12]) | Plant response rating, Kochia (kochia (Kochia scoparia); [13]) | Kochia plant response rating (kochia (Kochia scoparia); [15])

FC(F)(F)COCc1cc(-c2ccccc2Oc2ncc(Cl)cn2)on1 [Compound 128]
10: Plant response rating, Corn (corn (Zea mays); [12]) | Plant response rating, Barnyardgrass [6, 12] | Plant response rating, Ragweed [7, 12] | Plant response rating, Foxtail, Giant [11, 12] | Foxtail, Giant plant response rating [11, 15]
60: Plant response rating, Pigweed [9, 12]
30: Plant response rating, Galium [5, 12]
0: Ducksalad plant response rating [1] | Barnyardgrass plant response rating [2] | Sedge, Umbrella plant response rating [3] | Rice plant response rating (rice (Oryza sativa)) | Plant response rating, Blackgrass [4, 16] | Plant response rating, Corn (corn (Zea mays); [16]) | Plant response rating, Barnyardgrass [6, 16] | Plant response rating, Barnyardgrass [6, 14] | Barnyardgrass plant response rating [6, 15] | Plant response rating, Ragweed [7, 14] | Ragweed plant response rating [7, 15] | Plant response rating, Ryegrass, Italian [8, 14] | Plant response rating, Ryegrass, Italian [8, 12] | Ryegrass, Italian plant response rating [8, 15] | Plant response rating, Pigweed [9, 14] | Plant response rating, Wheat [10, 12] | Plant response rating, Foxtail, Giant [11, 16] | Plant response rating, Foxtail, Giant [11, 14] | Plant response rating, Kochia (kochia (Kochia scoparia); [14]) | Kochia plant response rating (kochia (Kochia scoparia); [15])
40: Pigweed plant response rating [9, 15]
50: Plant response rating, Kochia (kochia (Kochia scoparia); [12])
20: Plant response rating, Blackgrass [4, 12]

Cc1cnc(Oc2ccccc2-c2cc(C(F)F)no2)nc1 [Compound 211]
60: Plant response rating, Galium [5, 13]
80: Kochia plant response rating (kochia (Kochia scoparia); [15])
100: Plant response rating, Galium [5, 12] | Plant response rating, Pigweed [9, 14] | Pigweed plant response rating [9, 15] | Foxtail, Giant plant response rating [11, 15]
30: Plant response rating, Ragweed [7, 12] | Ragweed plant response rating [7, 15]
70: Ducksalad plant response rating [1]
0: Barnyardgrass plant response rating [2] | Rice plant response rating (rice (Oryza sativa)) | Plant response rating, Corn (corn (Zea mays); [13]) | Plant response rating, Barnyardgrass [6, 13] | Plant response rating, Ragweed [7, 14] | Plant response rating, Ragweed [7, 13] | Plant response rating, Ryegrass, Italian [8, 14] | Plant response rating, Ryegrass, Italian [8, 12] | Plant response rating, Ryegrass, Italian [8, 13] | Ryegrass, Italian plant response rating [8, 15] | Plant response rating, Wheat [10, 12] | Plant response rating, Wheat [10, 13]
20: Sedge, Umbrella plant response rating [3] | Plant response rating, Pigweed [9, 13] | Plant response rating, Kochia (kochia (Kochia scoparia); [14])
50: Plant response rating, Blackgrass [4, 12] | Barnyardgrass plant response rating [6, 15] | Plant response rating, Pigweed [9, 12] | Plant response rating, Foxtail, Giant [11, 12]
10: Plant response rating, Blackgrass [4, 13] | Plant response rating, Corn (corn (Zea mays); [12]) | Plant response rating, Barnyardgrass [6, 14] | Plant response rating, Barnyardgrass [6, 12] | Plant response rating, Foxtail, Giant [11, 14] | Plant response rating, Foxtail, Giant [11, 13]
90: Plant response rating, Kochia (kochia (Kochia scoparia); [12])
40: Plant response rating, Kochia (kochia (Kochia scoparia); [13])

FC(F)(F)COc1cc(-c2ccccc2Oc2ncc(Cl)cn2)on1 [Compound 176]
100: Plant response rating, Pigweed [9, 12] | Plant response rating, Kochia (kochia (Kochia scoparia); [12])
75: Ducksalad plant response rating [1]
60: Plant response rating, Foxtail, Giant [11, 14]
90: Plant response rating, Galium [5, 12] | Plant response rating, Pigweed [9, 13] | Pigweed plant response rating [9, 15] | Foxtail, Giant plant response rating [11, 15]
30: Sedge, Umbrella plant response rating [3] | Plant response rating, Blackgrass [4, 12] | Plant response rating, Galium [5, 13] | Plant response rating, Corn (corn (Zea mays); [12]) | Plant response rating, Barnyardgrass [6, 12] | Plant response rating, Pigweed [9, 14] | Plant response rating, Kochia (kochia (Kochia scoparia); [13])
10: Plant response rating, Corn (corn (Zea mays); [13]) | Plant response rating, Barnyardgrass [6, 14] | Plant response rating, Barnyardgrass [6, 13] | Plant response rating, Ragweed [7, 13] | Plant response rating, Ryegrass, Italian [8, 12] | Ryegrass, Italian plant response rating [8, 15]
20: Plant response rating, Ragweed [7, 12] | Plant response rating, Foxtail, Giant [11, 13] | Kochia plant response rating (kochia (Kochia scoparia); [15])
50: Barnyardgrass plant response rating [6, 15] | Plant response rating, Foxtail, Giant [11, 12]
0: Barnyardgrass plant response rating [2] | Rice plant response rating (rice (Oryza sativa)) | Plant response rating, Blackgrass [4, 13] | Plant response rating, Ragweed [7, 14] | Ragweed plant response rating [7, 15] | Plant response rating, Ryegrass, Italian [8, 14] | Plant response rating, Ryegrass, Italian [8, 13] | Plant response rating, Wheat [10, 12] | Plant response rating, Wheat [10, 13] | Plant response rating, Kochia (kochia (Kochia scoparia); [14])
